Publication PMC8518537, “N‐(Anilinoethyl)amide Melatonergic Ligands with Improved Water Solubility and Metabolic Stability” (Chemmedchem, 2021)
In brackets after ≈: the same amount, converted by molar mass. Read-outs that look alike come from different tables or passages of the source.

Assays:
[1] = Thermodynamic solubility, shake flask method; format: physicochemical; details: thermodynamic from solid, room temperature overnight, mean±SD, triplicate
Method: Thermodynamic solubility values were measured in two different buffers (pH 1.0; pH 7.4) by the shake flask method.[65] 1 mg of each compound was placed in 1 mL of appropriate buffer and shaken at room temperature overnight. The resulting suspension was centrifuged (10 min, 10000 g, 20 °C) and the supernatant analyzed by HPLC‐UV. Solubility values were interpolated from calibration curves prepared from concentrated DMSO stock solutions of each compound. Reported solubility values are the mean of three measurements±standard deviation.
It consisted of a LC‐10ADvp solvent delivery module, a 20 μL Rheodyne sample injector (Rheodyne LLC, Rohnert Park, CA, USA) and a SPD‐10Avp UV‐VIS detector. PeakSimple 2.83 software was employed for data acquisition and HPLC peak integration. […] Elution conditions were optimized for each compound at a flow rate of 1 mL min^−1 employing mobile phases consisting of water and acetonitrile at different percentages, while UV detection was set at λ = 254 nm.

[2] = Experimental lipophilicity, shake-flask n-octanol/water; format: physicochemical; details: n-octanol/water (MOPS buffer); n-octanol/50 mM MOPS buffer pH 7.4, 25±1 °C; mean±SD of three; read-out: Log D oct,7.4
Method: Chosen buffer was 50 mM zwitterionic MOPS (3‐morpholinopropanesulfonic acid), pH 7.4 to avoid ionic couple partitioning, with ionic strength adjusted to 0.15 M by KCl addition. Compounds, after partitioning overnight, and dilution of both phases with methanol, were dosed in the HPLC‐UV system, as detailed below. Reported log D oct,7.4 values are the mean of three measurements±standard deviation.
HPLC columns were a RP‐C18 Supelco Discovery (Supelco, Bellefonte, PA, USA), 5 μm, 150×4.6 mm i.d. for all compounds except 13, and a Phenomenex Gemini, 5 μm, 150×4.6 mm i.d. for compound 13 (Phenomenex). Elution conditions were optimized for each compound at a flow rate of 1 mL min^−1 employing mobile phases consisting of water and acetonitrile at different percentages, while UV detection was set at λ = 254 nm. For compound 13, the mobile phase consisted of a 10 mM ammonium acetate buffer pH 7.0 and methanol and the UV detection was set at λ = 281 nm.

human MT2 receptors = target: T1, human MT2 receptors (Homo sapiens, UniProt P49286); experiment: Radioligand binding, 2-[125I]iodomelatonin competition at MT2; details: cloned human MT2 in CHO cells; from IC50 by Cheng-Prusoff; mean±SD of three determinations; read-out: MT2 K i
T1 sequence (P49286 1-362): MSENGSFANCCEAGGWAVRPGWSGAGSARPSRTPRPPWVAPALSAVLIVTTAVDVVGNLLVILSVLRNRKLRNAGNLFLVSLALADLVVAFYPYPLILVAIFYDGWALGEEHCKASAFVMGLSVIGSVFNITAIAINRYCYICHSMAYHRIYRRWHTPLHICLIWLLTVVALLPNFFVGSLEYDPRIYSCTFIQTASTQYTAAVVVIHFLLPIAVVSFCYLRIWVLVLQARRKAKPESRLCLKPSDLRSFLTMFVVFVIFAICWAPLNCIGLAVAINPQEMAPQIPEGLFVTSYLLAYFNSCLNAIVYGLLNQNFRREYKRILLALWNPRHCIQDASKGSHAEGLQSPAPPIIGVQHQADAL
Method: (§1) The in vitro pharmacology experiments were conducted at Cerep (Celle‐Lévescault, France) following radioligand binding and cellular functional assays developed elsewhere.[60, 61, 62]
(§2) After incubation, the % of radioligand binding inhibition was determined via a scintillation counting method. The radioligand binding experiments were performed in triplicate. IC50 values were determined by nonlinear regression analysis of the competition curves using Hill equation curve fitting. The pK i values were calculated from the IC50 values in accordance with the Cheng‐Prusoff equation.[28]

[3] = Metabolic stability in rat liver microsomes; format: in vitro ADME; details: for CLi Rat LM (intrinsic clearance) / half-life at 5 μM: rat liver microsomes 1 mg protein/mL, 5 μM compound, mean±SD; for CLi Rat LM (intrinsic clearance): 37 °C; for half-life at 5 μM: NADPH-regenerating system, pH 7.4, 37 °C, read-out: t 1/2 Rat LM
Method: (§3) Each compound (final concentration: 5 μM) was incubated in the presence of rat or human liver microsomes (final concentration: 1 mg protein/mL) and of a NADPH‐regenerating system (final concentrations: 2 mM NADP^+, 10 mM glucose‐6‐phosphate, 0.4 U mL^−1 glucose‐6‐phosphate dehydrogenase, 5 mM MgCl2) in a 10 mM Phosphate Buffered Saline (PBS) solution, pH 7.4, at 37 °C. Compound was added after a 10 min pre‐incubation at 37 °C and. at stated time points, depending on compound kinetics, sample aliquots were withdrawn, metabolic reaction was quenched by acetonitrile addition (1 : 2), and after a centrifugation step (9000 g, 10 min, 4 °C) the supernatant was analyzed by HPLC‐UV‐VIS.
(§4) Apparent half‐lives (t1/2 in min) for the metabolic clearance of compounds were calculated from the pseudo first‐order rate constants (k) obtained by linear regression of the log chromatographic peak area versus time plots and are reported as means of three experiments±standard deviation. Intrinsic clearance (CLi) values of the compounds were calculated using the following equation: CLi (μL×min^−1×mg protein^−1)=k×V where V (μL×mg protein^−1)=incubation volume/mg protein added.
(§5) Pooled rat and human liver microsomes (20 mg/mL) were supplied by BD Biosciences (BD Biosciences, Woburn, MA, USA). Acetonitrile and methanol were HPLC grade and were supplied by Sigma‐Aldrich (Sigma‐Aldrich srl, Milan, Italy). Water was freshly bidistilled before use. All other reagents were purchased in the highest purity available.
(§6) PeakSimple 2.83 software was employed for data acquisition and HPLC peak integration. HPLC columns were a RP‐C18 Supelco Discovery (Supelco, Bellefonte, PA, USA), 5 μm, 150×4.6 mm i.d. for all compounds except 13, and a Phenomenex Gemini, 5 μm, 150×4.6 mm i.d. for compound 13 (Phenomenex). Elution conditions were optimized for each compound at a flow rate of 1 mL min^−1 employing mobile phases consisting of water and acetonitrile at different percentages, while UV detection was set at λ = 254 nm. For compound 13, the mobile phase consisted of a 10 mM ammonium acetate buffer pH 7.0 and methanol and the UV detection was set at λ = 281 nm.

human MT1 receptors = human MT1 receptors (Homo sapiens, UniProt P48039); experiment: Radioligand binding, 2-[125I]iodomelatonin competition at MT1; details: cloned human MT1 in CHO cells; from IC50 by Cheng-Prusoff; mean±SD of three determinations; read-out: MT1 K i
Sequence of human MT1 receptors (P48039 whole entry): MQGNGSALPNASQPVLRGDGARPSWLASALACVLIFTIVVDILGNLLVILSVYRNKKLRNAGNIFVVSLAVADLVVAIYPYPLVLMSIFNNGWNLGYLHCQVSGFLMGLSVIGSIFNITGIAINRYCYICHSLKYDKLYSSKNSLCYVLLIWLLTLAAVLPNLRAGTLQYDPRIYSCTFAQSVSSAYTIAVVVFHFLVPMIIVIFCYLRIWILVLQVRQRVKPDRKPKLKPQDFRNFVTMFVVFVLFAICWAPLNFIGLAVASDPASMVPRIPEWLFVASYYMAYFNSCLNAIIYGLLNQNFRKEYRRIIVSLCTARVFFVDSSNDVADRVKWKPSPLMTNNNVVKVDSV
Method: as §1, §2

[4] = Metabolic stability in human liver microsomes; format: in vitro ADME; details: for CLi Human LM (intrinsic clearance) / half-life at 5 μM: human liver microsomes 1 mg protein/mL, 5 μM compound, mean±SD; for CLi Human LM (intrinsic clearance): 37 °C; for half-life at 5 μM: NADPH-regenerating system, pH 7.4, 37 °C, read-out: t 1/2 Human LM
Method: as §3, §4, §5, §6

[5] = buffer pH 1.0, simulated gastric fluid, pH 1.0 buffer, read-out: Solubility pH 1.0
[6] = buffer pH 7.4, aqueous buffer, pH 7.4 buffer, read-out: Solubility pH 7.4

Row | solubility [1, 5] | solubility [1, 6] | logD [2] | Ki (human MT2 receptors) | CLi Rat LM (intrinsic clearance) [3] | half-life at 5 μM [3] | Ki (human MT1 receptors) | CLi Human LM (intrinsic clearance) [4] | half-life at 5 μM [4] | increase of rat microsomal stability compared to UCM765 ([3]; rat liver microsomes, versus UCM765) | increase of human microsomal stability compared to UCM765 ([4]; human liver microsomes, versus UCM765) | SMILES
1 | 125 ± 5 µg/mL (≈ 440 µM) | 104 ± 5 µg/mL (≈ 366 µM) | 2.93 ± 0.01 | 0.29 ± 0.1 nM | 408±85 μL min^−1 mg prot^−1 | 1.7 ± 0.4 min | 1.6 ± 0.14 nM | 17±1 μL min^−1 mg prot^−1 | 40.8 ± 1.1 min | – | – | COc1cccc(N(CCNC(C)=O)c2ccccc2)c1 [Compound 2, N‐{2‐[(3‐methoxyphenyl)phenylamino]ethyl}acetamide, reference compound]
2 | > 1000 µg/mL | 110 ± 6.9 µg/mL (≈ 351 µM) | 3.44 ± 0.02 | 2.1 ± 0.15 nM | 247.3±34.2 μL min^−1 mg prot^−1 | 2.9 ± 0.5 min | > 100 nM | 96.7±6.3 μL min^−1 mg prot^−1 | 7.2 ± 0.5 min | – | – | COc1cccc(N(CCNC(C)=O)CCc2ccccc2)c1 [Compound 12, N ‐{2‐[(3‐Methoxyphenyl)(phenethyl)amino]ethyl}acetamide]
3 | 95.9 ± 4.2 µg/mL (≈ 319 µM) | 119 ± 2.8 µg/mL (≈ 395 µM) | 2.42 ± 0.02 | 1.4 ± 0.15 nM | 217.3±44.6 μL min^−1 mg prot^−1 | 3.3 ± 0.6 min | 53 ± 1.6 nM | 10.5±0.4 μL min^−1 mg prot^−1 | 66.2 ± 2.8 min | approximately 1.5 fold | approximately 1.5 fold | COc1cccc(N(CCNC(C)=O)c2cccc(O)c2)c1 [Compound 15, N ‐{2‐[(3‐Hydroxyphenyl)(3‐methoxyphenyl)amino]ethyl} acetamide]
4 | 14.9 ± 0.6 µg/mL (≈ 47.5 µM) | 10.2 ± 1.7 µg/mL (≈ 32.5 µM) | 3.3 ± 0.02 | 0.65 ± 0.03 nM | 98.1±6.8 μL min^−1 mg prot^−1 | 7.1 ± 0.5 min | 20 ± 0.45 nM | 45.1±3.0 μL min^−1 mg prot^−1 | 15.4 ± 1 min | – | – | CCNC(=O)NCCN(c1ccccc1)c1cccc(OC)c1 [Compound 6 b, 1‐Ethyl‐3‐{2‐[(3‐methoxyphenyl)phenylamino]ethyl}urea]
5 | > 1000 µg/mL | 340 ± 9.7 µg/mL (≈ 1140 µM) | 3.11 ± 0.02 | 1.7 ± 0.13 nM | 468.9±12.9 μL min^−1 mg prot^−1 | 1.5 ± 0.1 min | 32 ± 0.8 nM | 61.9±3.8 μL min^−1 mg prot^−1 | 11.2 ± 0.7 min | – | – | COc1ccc(-c2ccccc2)c(N(C)CCNC(C)=O)c1 [Compound 18, N ‐{2‐[(4‐Methoxy‐[1,1’‐biphenyl]‐2‐yl)(methylamino)]ethyl}acetamide]
6 | > 1000 µg/mL | 1020 ± 93.7 µg/mL (≈ 3570 µM) | 0.41 ± 0.01 | > 100 nM | – | – | > 100 nM | – | – | – | – | COc1cccc(N(CCNC(C)=O)c2ccncc2)c1 [Compound 13, N ‐{2‐[(3‐Methoxyphenyl)(pyridine‐4‐yl)amino]ethyl}acetamide]
7 | 364 ± 3.7 µg/mL (≈ 1280 µM) | 311.4 ± 2.6 µg/mL (≈ 1090 µM) | 2.65 ± 0.02 | 10 ± 0.13 nM | 44.2±1.0 μL min^−1 mg prot^−1 | 15.7 ± 0.4 min | > 100 nM | 9.1±1.5 μL min^−1 mg prot^−1 | 77.5 ± 13.4 min | – | – | COc1cccc(N(CCNC(N)=O)c2ccccc2)c1 [Compound 6 a, 1‐{2‐[(3‐Methoxyphenyl)phenylamino]ethyl}urea]
8 | 6.9 ± 0.1 µg/mL (≈ 19.6 µM) | 5.1 ± 0.2 µg/mL (≈ 14.5 µM) | 3.84 ± 0.05 | 1.4 ± 0.08 nM | 38.1±6.0 μL min^−1 mg prot^−1 | 18.2 ± 2.8 min | > 100 nM | 9.7±0.5 μL min^−1 mg prot^−1 | 71.2 ± 3.4 min | – | – | CC(=O)NCCN(c1ccc(F)cc1)c1cccc(Br)c1 [Compound 3, N‐{2‐[(3‐bromophenyl)‐(4‐fluorophenyl)amino]ethyl}acetamide, reference compound]
